Laboratory results reported in patent US20090170914A1, “Cermide Kinase Modulation” (priority 2006, published 2009).

melting point: 160 to 167 °C
SMILES: CCCCCCCCCCCCCC(=O)Nc1ccc2nc(NC(=O)c3ccccc3)sc2c1
